# From US20240360113A1, “AMINOARYL-INTEGRIN AGONISTS COMPOUNDS” (Texas Heart Institute, priority 2021, published 2024)
# What was measured:
# αLβ2/ICAM-1 = target: T1, αLβ2/ICAM-1 (Homo sapiens, UniProt P05107+P20701); experiment: Static cell adhesion assay, HSB cells on ICAM-1 (LFA-1; LAD); assay type: cell-based; conditions: RFU of compound / RFU of THI0349, both at the same concentration
# T1 construct: The Jurkat (VCAM-1 assays) and HSB (ICAM-1 assays) cell lines were obtained from American Type Culture Collection; endogenous in cells; host or cells: HSB (ATCC)
# Procedure, shortened: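 HSB cells were labeled with calcein-AM for 30 minutes, washed, resuspended in binding buffer (PBS with 2 mM MgCl2, 5 mM EGTA, 50% FBS) and plated at 2×10^5 cells/well in triplicate onto 96-well plates coated overnight at 4° C with ICAM-1 (5 μg/mL in 50 μL TBS) and blocked with 2% BSA. Compounds were tested in 1% DMSO. After 30 minutes at 37° C and three washes, adherent cells were lysed and fluorescence was read; results are compound RFU divided by THI0349 RFU.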
# α4β1/VCAM-1 = target: T2, α4β1/VCAM-1 (Homo sapiens, UniProt P05556+P13612); experiment: Static cell adhesion assay, Jurkat cells on VCAM-1 (VLA-4 agonist activity); assay type: cell-based; conditions: EC50 relative to THI0349 (average 11 uM) run on the same plate; Jurkat cells, 50% FBS
# T2 construct: The Jurkat (VCAM-1 assays) and HSB (ICAM-1 assays) cell lines were obtained from American Type Culture Collection; endogenous in cells; host or cells: Jurkat (ATCC)
# Procedure, shortened: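 Calcein-labelled Jurkat cells (2×10^5/well) were added to wells coated with a sub-optimal level of human VCAM-1 (0.5 μg/mL) in PBS, 1 mM MgCl2, 50% FBS with compound in 1% DMSO. After 30 min at 37° C. and washing, adherent-cell fluorescence was read. EC50 was the concentration giving 50% of maximal response.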
# T1 sequence (P20701 26-1170): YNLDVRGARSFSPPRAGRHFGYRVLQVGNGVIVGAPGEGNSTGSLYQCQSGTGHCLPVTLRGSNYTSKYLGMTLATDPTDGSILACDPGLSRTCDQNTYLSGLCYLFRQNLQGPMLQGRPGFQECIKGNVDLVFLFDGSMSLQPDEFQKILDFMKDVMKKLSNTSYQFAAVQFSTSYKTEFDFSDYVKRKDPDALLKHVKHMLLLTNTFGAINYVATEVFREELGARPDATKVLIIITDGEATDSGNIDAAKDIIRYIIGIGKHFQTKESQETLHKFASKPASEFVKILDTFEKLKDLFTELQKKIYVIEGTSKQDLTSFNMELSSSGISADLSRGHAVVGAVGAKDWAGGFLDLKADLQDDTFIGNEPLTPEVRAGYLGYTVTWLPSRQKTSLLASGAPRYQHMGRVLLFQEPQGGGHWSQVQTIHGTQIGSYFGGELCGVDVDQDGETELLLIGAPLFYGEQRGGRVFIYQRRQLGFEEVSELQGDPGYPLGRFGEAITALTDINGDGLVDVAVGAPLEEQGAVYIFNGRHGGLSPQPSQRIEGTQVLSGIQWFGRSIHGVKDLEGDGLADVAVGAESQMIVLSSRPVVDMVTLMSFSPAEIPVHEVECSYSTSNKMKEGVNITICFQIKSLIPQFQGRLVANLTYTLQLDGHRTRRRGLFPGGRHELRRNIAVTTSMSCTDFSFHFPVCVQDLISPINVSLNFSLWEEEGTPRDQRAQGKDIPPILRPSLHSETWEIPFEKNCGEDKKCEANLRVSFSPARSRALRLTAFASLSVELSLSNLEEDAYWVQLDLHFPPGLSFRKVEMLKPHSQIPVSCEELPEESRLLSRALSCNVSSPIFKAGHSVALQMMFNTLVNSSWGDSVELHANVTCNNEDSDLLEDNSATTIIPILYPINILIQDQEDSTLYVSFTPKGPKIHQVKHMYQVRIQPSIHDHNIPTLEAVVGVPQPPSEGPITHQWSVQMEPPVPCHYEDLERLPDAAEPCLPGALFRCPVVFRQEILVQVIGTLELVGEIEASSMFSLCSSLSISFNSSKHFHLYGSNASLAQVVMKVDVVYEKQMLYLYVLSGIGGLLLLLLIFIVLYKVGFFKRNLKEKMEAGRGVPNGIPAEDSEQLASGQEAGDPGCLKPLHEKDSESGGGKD
# T1 sequence (P05107 23-769): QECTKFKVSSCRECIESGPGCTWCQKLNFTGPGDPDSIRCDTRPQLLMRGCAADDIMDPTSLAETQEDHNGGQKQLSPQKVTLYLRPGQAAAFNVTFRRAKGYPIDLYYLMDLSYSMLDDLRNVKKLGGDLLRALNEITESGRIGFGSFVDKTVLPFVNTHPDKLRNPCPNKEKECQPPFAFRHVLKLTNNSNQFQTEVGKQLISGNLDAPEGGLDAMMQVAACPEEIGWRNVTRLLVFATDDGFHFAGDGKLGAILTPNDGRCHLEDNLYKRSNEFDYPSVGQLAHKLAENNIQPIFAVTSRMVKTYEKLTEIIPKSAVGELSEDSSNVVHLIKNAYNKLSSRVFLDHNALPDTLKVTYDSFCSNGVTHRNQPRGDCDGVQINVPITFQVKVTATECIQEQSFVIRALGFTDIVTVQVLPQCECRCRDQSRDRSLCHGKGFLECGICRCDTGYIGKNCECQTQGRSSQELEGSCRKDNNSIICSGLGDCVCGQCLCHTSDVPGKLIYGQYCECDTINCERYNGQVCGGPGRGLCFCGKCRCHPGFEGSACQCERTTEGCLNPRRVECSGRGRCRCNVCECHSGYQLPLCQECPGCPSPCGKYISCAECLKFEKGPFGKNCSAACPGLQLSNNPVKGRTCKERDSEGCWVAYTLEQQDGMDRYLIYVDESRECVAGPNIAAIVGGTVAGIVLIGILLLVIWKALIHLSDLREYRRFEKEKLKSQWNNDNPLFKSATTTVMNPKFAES
# T2 sequence (P13612 34-1032): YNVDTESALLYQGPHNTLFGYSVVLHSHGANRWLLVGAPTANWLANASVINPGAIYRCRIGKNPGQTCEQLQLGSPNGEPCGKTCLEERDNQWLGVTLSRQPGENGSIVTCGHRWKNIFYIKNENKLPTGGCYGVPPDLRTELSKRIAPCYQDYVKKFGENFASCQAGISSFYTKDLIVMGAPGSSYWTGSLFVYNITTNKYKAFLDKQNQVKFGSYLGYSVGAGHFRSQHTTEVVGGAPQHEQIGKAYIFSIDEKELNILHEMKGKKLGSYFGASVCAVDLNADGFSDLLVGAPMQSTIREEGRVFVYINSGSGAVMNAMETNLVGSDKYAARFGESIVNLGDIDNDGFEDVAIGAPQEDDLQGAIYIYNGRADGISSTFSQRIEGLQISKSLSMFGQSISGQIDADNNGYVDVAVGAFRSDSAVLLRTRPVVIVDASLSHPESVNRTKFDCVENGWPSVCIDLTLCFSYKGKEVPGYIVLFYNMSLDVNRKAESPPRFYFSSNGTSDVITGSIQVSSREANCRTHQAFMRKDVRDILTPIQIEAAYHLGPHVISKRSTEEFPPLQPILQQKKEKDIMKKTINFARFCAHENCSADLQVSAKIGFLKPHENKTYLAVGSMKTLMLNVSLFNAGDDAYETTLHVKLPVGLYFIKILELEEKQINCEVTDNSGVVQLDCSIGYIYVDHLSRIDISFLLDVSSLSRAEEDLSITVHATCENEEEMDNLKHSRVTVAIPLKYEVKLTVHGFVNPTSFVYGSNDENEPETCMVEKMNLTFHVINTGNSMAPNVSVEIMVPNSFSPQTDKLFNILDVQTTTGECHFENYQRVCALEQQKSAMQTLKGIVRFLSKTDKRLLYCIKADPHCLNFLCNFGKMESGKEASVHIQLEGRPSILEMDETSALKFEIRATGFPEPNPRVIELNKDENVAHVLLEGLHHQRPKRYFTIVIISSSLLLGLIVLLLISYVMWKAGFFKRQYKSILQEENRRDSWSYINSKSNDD
# T2 sequence (P05556 21-798): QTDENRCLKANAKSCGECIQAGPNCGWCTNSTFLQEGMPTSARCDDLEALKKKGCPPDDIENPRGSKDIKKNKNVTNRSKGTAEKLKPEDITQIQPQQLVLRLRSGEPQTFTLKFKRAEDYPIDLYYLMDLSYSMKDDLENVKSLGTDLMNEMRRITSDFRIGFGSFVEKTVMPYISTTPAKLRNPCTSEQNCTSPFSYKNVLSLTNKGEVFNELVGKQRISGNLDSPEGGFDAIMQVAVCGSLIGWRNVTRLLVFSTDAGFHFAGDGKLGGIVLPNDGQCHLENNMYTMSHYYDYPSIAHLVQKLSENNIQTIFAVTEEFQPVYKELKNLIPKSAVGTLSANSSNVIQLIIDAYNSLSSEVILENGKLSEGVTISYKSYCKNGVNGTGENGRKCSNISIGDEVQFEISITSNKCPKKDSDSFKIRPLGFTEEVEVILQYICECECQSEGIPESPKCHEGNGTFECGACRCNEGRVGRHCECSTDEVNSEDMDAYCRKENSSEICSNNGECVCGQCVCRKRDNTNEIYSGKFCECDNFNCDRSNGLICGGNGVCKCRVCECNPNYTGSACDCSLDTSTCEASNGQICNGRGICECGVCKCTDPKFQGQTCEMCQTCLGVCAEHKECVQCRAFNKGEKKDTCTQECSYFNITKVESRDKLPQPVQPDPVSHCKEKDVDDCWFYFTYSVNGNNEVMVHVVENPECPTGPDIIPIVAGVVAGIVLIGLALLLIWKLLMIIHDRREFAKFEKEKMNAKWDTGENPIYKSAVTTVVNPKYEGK
SMILES,LAD Raw Fluorescence Units against LFA-1; Dose 3 µM; Ratio of raw counts Compound/THI0349 (αLβ2/ICAM-1),Group against VCAM (α4β1/VCAM-1)
"COc1cccc(CN(Cc2cccc(OC)c2)c2nc(COCCOc3ccc(N(C)C)cc3)cs2)c1 [Compound 51, 4-((2-(4-(dimethylamino)phenoxy)ethoxy)methyl)-N,N-bis(3-methoxybenzyl)thiazol-2-amine]",1.3,III (Group III more than five times the EC50 of THI0349)
"COc1ccc(CN(Cc2ccc(OC)cc2)c2nc(COCCOCCOCc3csc(N(Cc4ccc(OC)cc4)Cc4ccc(OC)cc4)n3)cs2)cc1 [Compound 35, 4,4′-(2,2′-oxybis(ethane-2,1-diyl)bis(oxy))bis(methylene)bis(N,N-bis(4-methoxybenzyl)thiazol-2-amine)]",0.98,II (Group II is more than twice that of THI0349 but less than five times THI0349's EC50)
"COCCOc1cccc(CN(Cc2cccc(OC)c2)c2nc(CN3CCOCC3)cs2)c1 [Compound 74, N-(3-methoxybenzyl)-N-(3-(2-methoxyethoxy)benzyl)-4-(morpholinomethyl)thiazol-2-amine]",0.3,I (Group I maintains at least the same potency or better up to more than twice that of the EC50 of THI0349 ran on the same plate)
"CCOC(=O)c1csc(N(Cc2cccc(OC)c2)CC(C)C)n1 [Compound 121, ethyl 2-(isobutyl(3-methoxybenzyl)amino)thiazole-4-carboxylate]",0.18,III (Group III more than five times the EC50 of THI0349)
"COc1ccc(CN(Cc2ccc(OC)cc2)c2nc(CO)co2)cc1 [Compound 26, (2-(bis(4-methoxybenzyl)amino)oxazol-4-yl)methanol]",0.79,I (Group I maintains at least the same potency or better up to more than twice that of the EC50 of THI0349 ran on the same plate)
"CCOC(=O)c1csc(N(Cc2cccc(OC)c2)Cc2cccc(-n3cccn3)c2)n1 [Compound 119, ethyl 2-((3-(1H-pyrazol-1-yl)benzyl)(3-methoxybenzyl)amino)thiazole-4-carboxylate]",0.2,II (Group II is more than twice that of THI0349 but less than five times THI0349's EC50)
"COc1cccc(CN(C)c2nc(C)cs2)c1 [Compound 100, N-(3-methoxybenzyl)-N,4-dimethylthiazol-2-amine]",0.05,III (Group III more than five times the EC50 of THI0349)
"COc1cccc(COCc2csc(N(Cc3ccc(-n4cccn4)cc3)Cc3cccc(OC)c3)n2)c1 [Compound 104, N-(4-(1H-pyrazol-1-yl)benzyl)-N-(3-methoxybenzyl)-4-((3-methoxybenzyloxy)methyl)thiazol-2-amine]",0.28,I (Group I maintains at least the same potency or better up to more than twice that of the EC50 of THI0349 ran on the same plate)
"CCOC(=O)c1ccc(N(Cc2cccc(OC)c2)Cc2cccc(OC)c2)cc1 [Compound 85, ethyl 4-(bis(3-methoxybenzyl)amino)benzoate]",0.03,III (Group III more than five times the EC50 of THI0349)
"CCOC(=O)c1cnc(N(Cc2cccc(OC)c2)Cc2cccc(OC)c2)nc1 [Compound 96, ethyl 2-(bis(3-methoxybenzyl)amino)pyrimidine-5-carboxylate]",0.08,III (Group III more than five times the EC50 of THI0349)
"COc1ccc(CCCNC(=O)c2coc(N(Cc3cccc(OC)c3)Cc3cccc(OC)c3)n2)cc1 [Compound 20, 2-(bis(3-methoxybenzyl)amino)-N-(3-(4-methoxyphenyl)propyl)oxazole-4-carboxamide]",0.19,II (Group II is more than twice that of THI0349 but less than five times THI0349's EC50)
